Test: Boiling temperature at pressure P
Conditions: Liquid, Ebulliometric method (Recirculating still)

C1CCCCC1 [cyclohexane]
Conditions	Boiling temperature at pressure P [°C]
24.08 kPa	39.63
30.7 kPa	45.81
38.72 kPa	51.92
46.85 kPa	57.17
55.2 kPa	61.86
61.52 kPa	65.06
69.06 kPa	68.52
77.87 kPa	72.22
85.44 kPa	75.13
91.68 kPa	77.38
101.32 kPa	80.63

CCO [ethanol]
Conditions	Boiling temperature at pressure P [°C]
20.14 kPa	42.46
30.24 kPa	50.67
40.31 kPa	56.77
50.39 kPa	61.69
70.33 kPa	69.34
80.63 kPa	72.62
85.67 kPa	74.11
98.45 kPa	77.53
100.79 kPa	78.13
110.86 kPa	80.53
120.93 kPa	82.77
131.02 kPa	84.84
141.1 kPa	86.79
151.1 kPa	88.62
160 kPa	90.41
170 kPa	92.09
180 kPa	93.62
190 kPa	95.16
200 kPa	96.60

CCCCCCC [heptane]
Conditions	Boiling temperature at pressure P [°C]
10.23 kPa	35.76
16.91 kPa	47.28
23.5 kPa	55.43
35.39 kPa	66.27
56.16 kPa	79.51
67.57 kPa	85.09
74.44 kPa	88.22
79.37 kPa	90.30
86.51 kPa	93.16
100.11 kPa	98.06

CCCCCCCC [octane]
Conditions	Boiling temperature at pressure P [°C]
22.95 kPa	79.68
29.98 kPa	87.07
37.87 kPa	93.74
44.82 kPa	98.74
52.81 kPa	103.78
59.85 kPa	107.72
66.66 kPa	111.21
75.23 kPa	115.23
82.72 kPa	118.44
89.51 kPa	121.17
99.01 kPa	124.72

CCCO [propan-1-ol]
Conditions	Boiling temperature at pressure P [°C]
69.79 kPa	87.71
74.92 kPa	89.5
79.6 kPa	90.96
84.8 kPa	92.6
89.78 kPa	93.99
94.77 kPa	95.37
99.7 kPa	96.67
105.14 kPa	98.2
110.1 kPa	99.27
113.19 kPa	100.00
120.75 kPa	101.73
130.1 kPa	103.76
171 kPa	111.42
199.9 kPa	115.99
228.5 kPa	120.00
229.9 kPa	120.20
260 kPa	123.98
290 kPa	127.42
310 kPa	129.56
330 kPa	131.59
350 kPa	133.54
380 kPa	136.28
400 kPa	138.03
420 kPa	139.69
450 kPa	142.08
480 kPa	144.37
500 kPa	145.81
520 kPa	147.22
530 kPa	147.91
550 kPa	149.26
561.5 kPa	150.01
